From paper PMC5349910, “Discovery of BPR1K871, a quinazoline based, multi-kinase inhibitor for the treatment of AML and solid tumors: Rational design, synthesis, in vitro and in vivo evaluation” (Oncotarget, 2016)

Tests used:
CL-97 cells = assay: Anti-proliferative activity, CL-97; format: cell-based, human; settings: CL97; Human Lung Cancer; supplement values ± SEM; read-out: CL-97 EC50
U937 cells = assay: Anti-proliferative activity, U937; format: cell-based; settings: Homo sapiens, U-937; AML-FLT3-negative; supplement values ± SEM; read-out: U937 EC50
H1975 cells = assay: Anti-proliferative activity, H1975; format: cell-based; settings: Homo sapiens, NCI-H1975; NSCLC-EGFR LR/TM; supplement values ± SEM; read-out: H1975 EC50
Mia-PaCa2 cells = assay: Anti-proliferative activity, Mia-PaCa2; format: cell-based, human; settings: Homo sapiens, MIA PaCa-2, Human Pancreatic Cancer; supplement values ± SEM
MOLM-13 cells = assay: MTS cell viability assay, MOLM-13; format: cell-based, human; settings: Homo sapiens, MOLM-13, 72 h, MTS, 72 h; AML-FLT3-ITD (heterozygous); supplement values ± SEM; read-out: MOLM-13 EC50
Procedure: (§1) The MTS cell viability assay was conducted as previously described. The MOLM-13 human leukemia cell line was obtained from the German Resource Centre for Biological Material (DSMZ, Braunschweig, Germany); the MV4-11 cell line was purchased from the American Type Culture Collection (ATCC, Manassas, VA, USA). […] To determine cell viability after drug treatment, assay for MOLM-13 and MV4-11 was performed by seeding 10000 cells per well in a 96-well culture plate. […] After 16 h, cells were then treated with vehicle or various concentrations of compound in medium for 72 h. Viable cells were quantified using the MTS method (Promega, Madison, WI, USA) according to the manufacturer's recommended protocol. Results were determined by measuring the absorbance at 490 nm using a plate reader (Victor2; PerkinElmer, Shelton, CT, USA).

H2228 cells = assay: Anti-proliferative activity, H2228; format: cell-based; settings: Homo sapiens, NCI-H2228; NSCLC-ALK; supplement values ± SEM; read-out: H2228 EC50
HCC827 cells = assay: Anti-proliferative activity, HCC827; format: cell-based; settings: Homo sapiens, HCC827; NSCLC-EGFR L858R; supplement values ± SEM; read-out: HCC827 EC50
HCT-116 cells = assay: Anti-proliferative activity, HCT-116; format: cell-based, human; settings: HCT-116; Human Colon Cancer; supplement values ± SEM; read-out: HCT-116 EC50
MV4-11 cells = assay: MTS cell viability assay, MV4-11; format: cell-based, human; settings: Homo sapiens, MV4-11, 72 h, MTS, 72 h; AML-FLT3-ITD (homozygous); supplement values ± SEM; read-out: MV4-11 EC50
Procedure: as §1

RS4-11 cells = assay: Anti-proliferative activity, RS4-11; format: cell-based; settings: Homo sapiens, RS4-11; ALL-wt-FLT3 (homozygous); supplement values ± SEM; read-out: RS4-11 EC50
K562 cells = assay: Anti-proliferative activity, K562; format: cell-based; settings: Homo sapiens, K562; CML-Bcr-Abl FLT3-negative; supplement values ± SEM; read-out: K562 EC50
AURKA = biological target: T1, AURKA (Homo sapiens, UniProt O14965); set-up: method as in PMID 20550212, PMID 23172777, PMID 24665000; settings: previously reported leads 1, 2, 3; cited from earlier work
T1 construct: recombinant GST-AURKA (residues Ser123-Ser401) containing the kinase domain; GST (N); made in house; host or cells: Sf9 insect cells
T1 sequence (O14965 123-401): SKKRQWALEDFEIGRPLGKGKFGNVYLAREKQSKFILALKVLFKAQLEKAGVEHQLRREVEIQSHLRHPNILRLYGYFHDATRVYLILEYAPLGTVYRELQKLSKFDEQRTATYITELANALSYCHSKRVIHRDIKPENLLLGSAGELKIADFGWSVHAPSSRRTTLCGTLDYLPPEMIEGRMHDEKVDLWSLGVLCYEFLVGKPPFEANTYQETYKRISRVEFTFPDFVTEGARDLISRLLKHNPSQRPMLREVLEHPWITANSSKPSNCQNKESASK

FLT3 = biological target: T2, FLT3 (Homo sapiens, UniProt P36888); set-up: method as in PMID 20550212, PMID 23172777, PMID 24665000; settings: previously reported leads 1, 2, 3; cited from earlier work
T2 construct: FLT3 kinase catalytic domain (residues Tyr567-Ser993); made in house; host or cells: Sf9 insect cells (baculovirus, pBac-PAK8-GST-FLT3-KD)
T2 sequence (P36888 567-993): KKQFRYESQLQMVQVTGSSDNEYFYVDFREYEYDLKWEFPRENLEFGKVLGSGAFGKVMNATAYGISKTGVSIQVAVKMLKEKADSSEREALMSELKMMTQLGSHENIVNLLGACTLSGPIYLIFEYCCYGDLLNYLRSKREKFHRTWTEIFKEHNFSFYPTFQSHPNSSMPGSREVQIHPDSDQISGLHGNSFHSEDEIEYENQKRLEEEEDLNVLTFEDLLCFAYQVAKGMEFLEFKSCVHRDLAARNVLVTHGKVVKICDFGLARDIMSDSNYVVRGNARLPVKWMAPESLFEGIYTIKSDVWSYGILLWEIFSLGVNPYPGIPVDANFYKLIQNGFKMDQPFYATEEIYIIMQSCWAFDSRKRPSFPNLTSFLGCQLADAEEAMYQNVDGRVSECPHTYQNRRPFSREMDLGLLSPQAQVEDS

Colo 205 cells = assay: Anti-proliferative activity, Colo 205; format: cell-based; settings: Homo sapiens, COLO 205, Human Colon Cancer

Row | EC50 (U937 cells) [nM] | EC50 (H1975 cells) [nM] | EC50 (Mia-PaCa2 cells) [nM] | EC50 (MOLM-13 cells) [nM] | EC50 (H2228 cells) [nM] | EC50 (HCC827 cells) [nM] | EC50 (HCT-116 cells) [nM] | EC50 (MV4-11 cells) [nM] | EC50 (RS4-11 cells) [nM] | EC50 (K562 cells) [nM] | EC50 (Colo 205 cells) [nM] | SMILES | EC50 (CL-97 cells) [nM] | IC50 (AURKA) [nM] | IC50 (FLT3) [nM]
1 | > 18000 | 8850 | 16400 | 38 | 8780 | 6180 | 8070 | 82 | 9200 | > 20000 | – | Cc1ccc(F)c(NC(=O)Nc2ccc(-c3cccc4[nH]nc(N)c34)cc2)c1 [Linifanib] | > 20000 | – | –
2 | – | – | – | – | – | – | – | – | – | – | – | O=C(Nc1cccc(Cl)c1)Nc1ncc(CCNc2ncnc3oc(-c4ccccc4)c(-c4ccccc4)c23)s1 [Compound 3] | – | 43 | 322
3 | – | – | – | 69 | – | – | 97 | 71 | – | – | 86 | Cc1cc(Nc2cc(N3CCN(C)CC3)nc(Sc3ccc(NC(=O)C4CC4)cc3)n2)[nH]n1 [VX-680, reference compound] | – | – | –
